US4820694A, “Modifications of 3-O-demethylmycinose in macrocin and lactenocin” (priority 1986, dated 1989)
≈ marks a conversion by molar mass, not a printed value. Where two headings read alike, the source gives them in different places.

How the values were obtained:
[1] = tested on: Streptococcus pneumoniae Park I; experiment: microbe, parasite or virus in culture; format: cell-based; conditions: Streptococcus pneumoniae
Method: (§1) The MIC's in Table III were determined by standard agar-dilution assays. The MIC's in Table IV were obtained using conventional brothdilution microtiter tests.

[2] = tested on: Staphylococcus aureus S13E; experiment: microbe, parasite or virus in culture; format: cell-based; conditions: Staphylococcus aureus, S13E
Method: as §1

[3] = tested on: Staphylococcus aureus 19C; experiment: broth-dilution microtiter MIC test; format: cell-based; conditions: Staphylococcus aureus, 19C
Method: as §1

[4] = tested on: Pasteurella hemolytica 23C; experiment: broth-dilution microtiter MIC test; format: cell-based; conditions: Pasteurella, 23C
Method: as §1

[5] = tested on: Pasteurella multocida 60A; experiment: broth-dilution microtiter MIC test; format: cell-based; conditions: Pasteurella multocida, 60A
Method: as §1

[6] = tested on: Pasteurella multocida 17E; experiment: broth-dilution microtiter MIC test; format: cell-based; conditions: Pasteurella multocida, 17E
Method: as §1

[7] = tested on: Mycoplasma gallisepticum 15E; experiment: broth-dilution microtiter MIC test; format: cell-based; conditions: Mycoplasmoides gallisepticum, 15E
Method: as §1

Mycoplasma synoviae 40A = experiment: broth-dilution microtiter MIC test; format: cell-based; conditions: Mycoplasmopsis synoviae, 40A
Method: as §1

[8] = tested on: Pasteurella multocida 40G; experiment: broth-dilution microtiter MIC test; format: cell-based; conditions: Pasteurella multocida, 40G
Method: as §1

[9] = tested on: Mycoplasma gallisepticum 29C; experiment: broth-dilution microtiter MIC test; format: cell-based; conditions: Mycoplasmoides gallisepticum, 29C
Method: as §1

[10] = tested on: Pasteurella multocida 22A; experiment: broth-dilution microtiter MIC test; format: cell-based; conditions: Pasteurella multocida, 22A
Method: as §1

[11] = tested on: Pasteurella hemolytica 41D; experiment: broth-dilution microtiter MIC test; format: cell-based; conditions: Pasteurella, 41D
Method: as §1

[12] = tested on: Mycoplasma hyopneumoniae S5972; experiment: broth-dilution microtiter MIC test; format: cell-based; conditions: Mesomycoplasma hyopneumoniae, S5972
Method: as §1

[13] = tested on: Mycoplasma gallisepticum 36H; experiment: broth-dilution microtiter MIC test; format: cell-based; conditions: Mycoplasmoides gallisepticum, 36H
Method: as §1

[14] = tested on: Bordetella bronchiseptica; experiment: broth-dilution microtiter MIC test; format: cell-based; conditions: Bordetella bronchiseptica; broth-dilution microtiter; read-out: MIC
Method: as §1

Streptococcus sp. 19F = experiment: broth-dilution microtiter MIC test; format: cell-based; conditions: Streptococcus, SP.19F
Method: as §1

[15] = tested on: Pasteurella hemolytica 22C; experiment: broth-dilution microtiter MIC test; format: cell-based; conditions: Pasteurella, 22C
Method: as §1

Mycoplasma hyorhinis 29E = experiment: broth-dilution microtiter MIC test; format: cell-based; conditions: Mycoplasma, 29E
Method: as §1

[16] = tested on: Pasteurella multocida 68C; experiment: broth-dilution microtiter MIC test; format: cell-based; conditions: Pasteurella multocida, 68C
Method: as §1

[17] = tested on: Streptococcus pyogenes C203; experiment: protection of mice experimentally infected with S. pyogenes C203; format: in vivo; conditions: mice, mg/kg × 2, doses given 1 and 4 hours postinfection, read-out: ED50
Method in brief: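 Activity is given as ED50, the mg/kg dose (×2) protecting half of the mice infected with S. pyogenes C203. Compound was dosed 1 and 4 h after infection.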

[18] = tested on: Streptococcus pyogenes C203; experiment: standard agar-dilution MIC assay; format: cell-based; conditions: Streptococcus pyogenes, C203
Method: as §1

[19] = tested on: Streptococcus Group D X66; experiment: standard agar-dilution MIC assay; format: cell-based; conditions: read-out: MIC
Method: as §1

[20] = tested on: Staphylococcus aureus X1.1; experiment: standard agar-dilution MIC assay; format: cell-based; conditions: Staphylococcus aureus, X1.1
Method: as §1

[21] = tested on: Staphylococcus aureus X400; experiment: standard agar-dilution MIC assay; format: cell-based; conditions: Staphylococcus aureus, X400
Method: as §1

[22] = tested on: Staphylococcus aureus V41; experiment: standard agar-dilution MIC assay; format: cell-based; conditions: Staphylococcus aureus, V41
Method: as §1

[23] = tested on: Staphylococcus epidermidis EPI1; experiment: standard agar-dilution MIC assay; format: cell-based; conditions: Staphylococcus epidermidis, EPI1
Method: as §1

[24] = tested on: Staphylococcus epidermidis 222; experiment: standard agar-dilution MIC assay; format: cell-based; conditions: Staphylococcus epidermidis, 222
Method: as §1

[25] = tested on: Haemophilus influenzae C.L.; experiment: standard agar-dilution MIC assay; format: cell-based; conditions: Haemophilus influenzae
Method: as §1

[26] = tested on: Streptococcus Group D 9960; experiment: standard agar-dilution MIC assay; format: cell-based; conditions: GROUPD9960, read-out: MIC
Method: as §1

[27] = tested on: Klebsiella pneumoniae X68; experiment: standard agar-dilution MIC assay; format: cell-based; conditions: Klebsiella pneumoniae, X68; agar-dilution; read-out: MIC
Method: as §1

[28] = tested on: Haemophilus influenzae 76; experiment: standard agar-dilution MIC assay; format: cell-based; conditions: Haemophilus influenzae, 76
Method: as §1

[29] = tested on: Pseudomonas aeruginosa X239; experiment: standard agar-dilution MIC assay; format: cell-based; conditions: Pseudomonas aeruginosa, X239; agar-dilution; read-out: MIC
Method: as §1

Escherichia coli EC14 = experiment: standard agar-dilution MIC assay; format: cell-based; conditions: agar-dilution, read-out: MIC
Method: as §1

[30] = tested on: Streptococcus Group D 2041; experiment: standard agar-dilution MIC assay; format: cell-based; conditions: GROUPD2041
Method: as §1

[31] = broth-dilution microtiter, read-out: MIC

Structure (SMILES) | MIC ([1]; agar-dilution, read-out: MIC) [µg/mL] | MIC [2] [µg/mL] | MIC [3] [µg/mL] | MIC [4] [µg/mL] | MIC [5] [µg/mL] | MIC [6] [µg/mL] | MIC [9] [µg/mL] | MIC [10] [µg/mL] | MIC [11] [µg/mL] | MIC [14] [µg/mL] | MIC (Streptococcus sp. 19F) [µg/mL] | ED50 ([17]; C203, Oral) [mg/kg] | ED50 ([17]; C203, sc, Subcutaneous) [mg/kg] | MIC [19] [µg/mL] | MIC [20] [µg/mL] | MIC [23] [µg/mL] | MIC [25] [µg/mL] | MIC [27] [µg/mL] | MIC [29] [µg/mL] | MIC (Escherichia coli EC14) [µg/mL] | other results
CCC1OC(=O)CC(O)C(C)C(OC2OC(C)C(OC3CC(C)(O)C(O)C(C)O3)C(N(C)C)C2O)C(CC=O)CC(C)C(=O)C=CC(C)=CC1COC1OC(C)C2OC(=O)OC2C1OC (stereo not drawn) [Compound 49, Macrocin-3'",4'"-Carbonate Derivative] | 0.12 (≈ 0.129 µM) | 0.5 (≈ 0.539 µM) | 0.78 (≈ 0.84 µM) | 25 (≈ 26.9 µM) | 25 (≈ 26.9 µM) | 12.5 (≈ 13.5 µM) | 0.195 (≈ 0.21 µM) | 25 (≈ 26.9 µM) | 50 (≈ 53.9 µM) | > 50 | 0.39 (≈ 0.42 µM) | 85.6 | 1 | 1 (≈ 1.08 µM) | 0.5 (≈ 0.539 µM) | 1 (≈ 1.08 µM) | 32 (≈ 34.5 µM) | > 128 | > 128 | > 128 | MIC [7]: 25 µg/mL (≈ 26.9 µM); MIC (Mycoplasma synoviae 40A): 0.195 µg/mL (≈ 0.21 µM); MIC [8]: 25 µg/mL (≈ 26.9 µM); MIC [12, 31]: 0.097 µg/mL (≈ 0.105 µM); MIC [13, 31]: > 50 µg/mL; MIC [15]: 50 µg/mL (≈ 53.9 µM); MIC (Mycoplasma hyorhinis 29E): 0.78 µg/mL (≈ 0.84 µM); MIC [16]: 6.25 µg/mL (≈ 6.73 µM); MIC ([18]; agar-dilution, read-out: MIC): 0.12 µg/mL (≈ 0.129 µM); MIC [21]: 1 µg/mL (≈ 1.08 µM); MIC [22]: 0.5 µg/mL (≈ 0.539 µM); MIC [24]: 0.25 µg/mL (≈ 0.269 µM); MIC [26]: 1 µg/mL (≈ 1.08 µM); MIC [28]: 16 µg/mL (≈ 17.2 µM)
CCC1OC(=O)CC(O)C(C)C(OC2OC(C)C(OC3CC(C)(O)C(O)C(C)O3)C(N(C)C)C2OC(C)=O)C(CC=O)CC(C)C(=O)C=CC(C)=CC1COC1OC(C)C2OC(=O)OC2C1OC (stereo not drawn) [Compound 48] | 0.12 (≈ 0.124 µM) | 1 (≈ 1.03 µM) | – | 50 (≈ 51.5 µM) | – | – | 0.195 (≈ 0.201 µM) | 50 (≈ 51.5 µM) | 50 (≈ 51.5 µM) | > 50 | 0.39 (≈ 0.402 µM) | 28 | 1.53 | 2 (≈ 2.06 µM) | 1 (≈ 1.03 µM) | 1 (≈ 1.03 µM) | 32 (≈ 33 µM) | > 128 | > 128 | > 128 | MIC [3, 31]: 1.56 µg/mL (≈ 1.61 µM); MIC ([5]; broth-dilution microtiter, Avian isolate, read-out: MIC): 25 µg/mL (≈ 25.8 µM); MIC ([6]; broth-dilution microtiter, Bovine isolate, read-out: MIC): 12.5 µg/mL (≈ 12.9 µM); MIC [7, 31]: 12.5 µg/mL (≈ 12.9 µM); MIC (Mycoplasma synoviae 40A; [31]): 0.097 µg/mL (≈ 0.1 µM); MIC [8, 31]: 25 µg/mL (≈ 25.8 µM); MIC [12, 31]: 0.097 µg/mL (≈ 0.1 µM); MIC [13]: 50 µg/mL (≈ 51.5 µM); MIC [15, 31]: > 50 µg/mL; MIC (Mycoplasma hyorhinis 29E; [31]): 1.56 µg/mL (≈ 1.61 µM); MIC [16, 31]: 12.5 µg/mL (≈ 12.9 µM); MIC ([18]; agar-dilution, read-out: MIC): 0.5 µg/mL (≈ 0.515 µM); MIC [21]: 2 µg/mL (≈ 2.06 µM); MIC [22]: 1 µg/mL (≈ 1.03 µM); MIC ([24]; agar-dilution, read-out: MIC): 0.5 µg/mL (≈ 0.515 µM); MIC ([28]; agar-dilution, Ampicillin-resistant strain, read-out: MIC): 16 µg/mL (≈ 16.5 µM); MIC [30]: 2 µg/mL (≈ 2.06 µM)
CCC1OC(=O)CC(O)C(C)C(OC2OC(C)C(O)C(N(C)C)C2O)C(CCOc2ccccc2)CC(C)C(=O)C=CC(C)=CC1COC1OC(C)C=CC1OC (stereo not drawn) [Compound 43, 3",4"-Di(dehydrodeoxy)-20-DH-20-O-phenyl-lactenocin] | – | 0.25 (≈ 0.312 µM) | 1.56 (≈ 1.95 µM) | 50 (≈ 62.3 µM) | 25 (≈ 31.2 µM) | 25 (≈ 31.2 µM) | 0.39 (≈ 0.486 µM) | 50 (≈ 62.3 µM) | 50 (≈ 62.3 µM) | > 50 | 0.78 (≈ 0.973 µM) | 77.7 | > 10 | 1 (≈ 1.25 µM) | 0.25 (≈ 0.312 µM) | 0.25 (≈ 0.312 µM) | 32 (≈ 39.9 µM) | > 128 | > 128 | > 128 | MIC [1]: 0.5 µg/mL (≈ 0.623 µM); MIC [7]: 50 µg/mL (≈ 62.3 µM); MIC [8]: 25 µg/mL (≈ 31.2 µM); MIC [12]: 6.25 µg/mL (≈ 7.79 µM); MIC [13]: 25 µg/mL (≈ 31.2 µM); MIC [15]: 50 µg/mL (≈ 62.3 µM); MIC [16]: 12.5 µg/mL (≈ 15.6 µM); MIC [18]: 0.25 µg/mL (≈ 0.312 µM); MIC ([21]; agar-dilution, Methicillin-resistant strain, read-out: MIC): 0.25 µg/mL (≈ 0.312 µM); MIC ([22]; agar-dilution, Penicillin-resistant strain, read-out: MIC): 0.25 µg/mL (≈ 0.312 µM); MIC ([24]; agar-dilution, read-out: MIC): 0.12 µg/mL (≈ 0.15 µM); MIC [30]: 1 µg/mL (≈ 1.25 µM)
